Patent publication US20240400518A1, “SOS1 INHIBITOR AND USE THEREOF” (KANAPH THERAPEUTICS INC., priority 2021, published 2024)

Legend:
SOS1 = biological target: T1, SOS1 (Homo sapiens, UniProt Q07889); assay: SOS-catalyzed nucleotide exchange assay (HTRF, SOS1-mediated GTP loading of KRAS G12D); assay type: biochemical; settings: GST-KRAS G12D, HIS-SOS1cat, IC50 class
T1 construct: adding equal amounts of HIS—SOS1cat (160 nM; Cytoskeleton, US); His (N); purchased Cytoskeleton, US
T1 sequence (Q07889 564-1049 limits assumed): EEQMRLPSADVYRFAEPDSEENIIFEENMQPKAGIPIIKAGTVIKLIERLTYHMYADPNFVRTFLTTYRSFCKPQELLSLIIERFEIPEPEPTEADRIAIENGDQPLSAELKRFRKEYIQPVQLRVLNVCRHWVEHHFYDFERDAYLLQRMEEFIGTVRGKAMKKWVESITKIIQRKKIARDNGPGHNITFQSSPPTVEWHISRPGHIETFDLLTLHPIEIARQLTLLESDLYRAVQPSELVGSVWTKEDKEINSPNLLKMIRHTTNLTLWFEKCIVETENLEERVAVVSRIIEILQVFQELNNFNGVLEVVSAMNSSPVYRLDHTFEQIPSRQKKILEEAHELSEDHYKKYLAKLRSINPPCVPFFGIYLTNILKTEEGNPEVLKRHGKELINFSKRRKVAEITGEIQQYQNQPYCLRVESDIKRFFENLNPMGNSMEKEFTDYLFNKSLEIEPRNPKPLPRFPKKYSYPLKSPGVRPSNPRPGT
Method: SOS1 activity was measured by SOS1-mediated GTP loading quantification of KRAS^G12D. GTP loaded KRAS^G12D was detected by HTRF (Homogeneous Time Resolved Fluorescence) using anti-GST terbium (Cisbio, France) as a donor and a fluorescence GTP analogue (EDA-GTP-DY-647P1, [DY-647P1 labeled 2′/3′-O-(2-aminoethyl-carbamoyl)guanosine-5′-triphosphate (Jena bioscience, Germany)]) as an acceptor.
Assay buffer was composed of 10 mM HEPES pH 7.4, 150 mM NaCl, 5 mM MgCl2, 1 mM DTT, 0.05% BSA Fraction V pH 7.0 (Sigma) and 0.0025% (v/v) Igepal (Sigma). KRAS^G12D working solution was prepared by adding equal amounts of GST-KRAS^G12D (100 nM) and anti-GST-terbium (2 nM; Cisbio, France) to the assay buffer and culturing on ice for 10 minutes. SOS1cat working solution was prepared by adding equal amounts of HIS—SOS1cat (160 nM; Cytoskeleton, US) and EDA-GTP-DY-647P1 (200 nM; Jena bioscience, Germany) to the assay buffer. Control solution was prepared by adding equal volumes of EDA-GTP-DY-647P1 and the assay buffer for normalization control to exclude GEF-independent GTP loading and background signals. In order to induce a reaction, 5 μL of the SOS1cat working solution or the control solution was injected into each well. 5 μL of a compound having various concentrations from 128 pM to 10 μM was added to wells containing the SOS1cat working solution and incubated at room temperature for 10 minutes to bind to SOS1.
10 μL of the KRAS^G12D solution was added to each well and incubated for 30 minutes at room temperature while shaking. HTRF was measured using a Thermo Varioskan (excitation 334 nm, emission 665 nm). The IC50 of each inhibitor was analyzed using Graphad Prism.

KRAS^G12C::SOS1 = biological target: T2, KRAS^G12C::SOS1 (Homo sapiens, UniProt Q07889); assay: KRAS G12C::SOS1 protein-protein interaction (PPI) inhibition assay (HTRF binding kit); settings: max inhibitor concentration 3 μM, three replicates, IC50 class
T2 construct: purchased CISBIO, FRANCE 64KRASG12PEH
T2 sequence (Q07889 1-1333): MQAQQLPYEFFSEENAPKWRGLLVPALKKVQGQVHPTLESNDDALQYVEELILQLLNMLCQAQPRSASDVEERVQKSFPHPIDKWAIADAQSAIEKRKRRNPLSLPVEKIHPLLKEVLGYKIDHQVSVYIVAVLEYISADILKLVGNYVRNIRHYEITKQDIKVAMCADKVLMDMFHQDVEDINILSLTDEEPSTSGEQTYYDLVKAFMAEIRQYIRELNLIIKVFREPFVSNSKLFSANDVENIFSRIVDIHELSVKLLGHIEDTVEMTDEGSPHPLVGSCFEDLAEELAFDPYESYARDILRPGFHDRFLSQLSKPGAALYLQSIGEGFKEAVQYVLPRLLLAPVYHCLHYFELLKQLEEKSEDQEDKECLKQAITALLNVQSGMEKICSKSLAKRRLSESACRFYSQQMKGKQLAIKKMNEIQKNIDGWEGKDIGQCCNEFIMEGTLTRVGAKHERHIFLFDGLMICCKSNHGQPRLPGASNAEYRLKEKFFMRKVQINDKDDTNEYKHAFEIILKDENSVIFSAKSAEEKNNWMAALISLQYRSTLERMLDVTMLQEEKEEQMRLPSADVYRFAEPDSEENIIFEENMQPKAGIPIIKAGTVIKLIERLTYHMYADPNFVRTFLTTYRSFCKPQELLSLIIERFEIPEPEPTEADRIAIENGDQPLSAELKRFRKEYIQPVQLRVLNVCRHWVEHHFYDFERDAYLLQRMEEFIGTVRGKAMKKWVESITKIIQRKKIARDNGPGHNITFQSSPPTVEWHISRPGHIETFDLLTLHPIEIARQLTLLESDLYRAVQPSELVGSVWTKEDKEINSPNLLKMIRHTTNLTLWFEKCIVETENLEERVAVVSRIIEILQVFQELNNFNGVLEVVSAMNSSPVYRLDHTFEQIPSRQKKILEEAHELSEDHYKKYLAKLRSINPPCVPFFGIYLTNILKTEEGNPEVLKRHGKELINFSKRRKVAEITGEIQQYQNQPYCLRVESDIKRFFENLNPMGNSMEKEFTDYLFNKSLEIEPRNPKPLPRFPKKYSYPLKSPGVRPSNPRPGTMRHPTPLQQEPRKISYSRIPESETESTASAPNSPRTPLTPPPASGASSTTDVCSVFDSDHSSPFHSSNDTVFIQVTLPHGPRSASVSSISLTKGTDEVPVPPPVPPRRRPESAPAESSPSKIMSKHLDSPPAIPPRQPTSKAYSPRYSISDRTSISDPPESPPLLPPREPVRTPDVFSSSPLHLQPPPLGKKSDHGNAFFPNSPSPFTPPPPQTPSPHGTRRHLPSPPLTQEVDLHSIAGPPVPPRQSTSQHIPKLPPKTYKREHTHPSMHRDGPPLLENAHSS
Method: Protein-protein interaction between SOS1 and KRAS^G12C was detected using KRAS G12C/SOS1 binding kit from CISBIO (64KRASG12PEH, CISBIO, FRANCE) according to the manufacturer's assay method. Briefly, the maximum concentration of an inhibitor sample was set to be 3 μM, and the inhibitor sample was diluted 7 times by 1/3, and samples having a total of 8 concentrations were prepared. In HTRF (Homogeneous Time-Resolved Fluorescence) exclusive 96-well low-volume white plate (66PL96005, CISBIO, FRANCE), 2 μL of an inhibitor sample prepared for each concentration, 5 μL of a mixed solution of Tag1 labeled KRAS^G12C protein and GTP diluted with the dilution solution provided by the manufacturer, and 5 μL of Tag2 labeled SOS1 protein were mixed, and added with 8 μL of a diluted solution where anti-Tag1 KRAS^G12CXL665 (HTRF acceptor) labeled antibody and anti-Tag2 SOS1 Terbium cryptate (HTRF donor) labeled antibody were mixed in an equal ratio and cultured at room temperature for 2 hours.

CC(=O)N1CCC(n2nc(C(=O)N[C@H](C)c3cc(N)cc(C(F)(F)F)c3)ccc2=O)CC1 [Example 118, 1-(1-acetylpiperidin-4-yl)-N-[(1R)-1-[3-amino-5-(trifluoromethyl)phenyl]ethyl]-6-oxo-1,6-dihydropyridazine-3-carboxamide]
IC50 (SOS1): 1000 to 10000 nM

C[C@@H](NC(=O)c1ccc(=O)n(-c2ccc(OC(F)(F)F)cc2)n1)c1cc(N)cc(C(F)(F)F)c1 [Example 154]
IC50 (SOS1): 1000 to 10000 nM
IC50 (KRAS^G12C::SOS1): < 1000 nM
